Results on one compound are retold here after paper PMC6985109, “Cellular apoptosis and necrosis as therapeutic targets for novel Eugenol Tosylate Congeners against Candida albicans” (Scientific Reports, 2020).

Data set [1] deals with Candida albicans 4563. Nature of the data set: Broth microdilution antifungal susceptibility (MIC/MFC). In kind it is cell-based. The following applies: strain 4563, FLC susceptible. On the procedure: (§1) In this study, 10 clinical Candida albicans isolates, comprising of 5 fluconazole susceptible and 5 fluconazole resistant, were used. C. albicans SC5314 was also used as a control laboratory strain. Clinical strains used in this study were stored at −80 °C supplemented with 20% glycerol in the Department of Clinical Microbiology and Infectious Diseases, University of the Witwatersrand, Johannesburg and were previously collected under the ethical clearance number M000402, obtained from the Human Research Ethics Committee, University of the Witwatersrand. For experimental purpose each strain from glycerol stock was recovered on Sabouraud Dextrose (SDA) agar plates at 37 °C for 24 h.
(§2) Minimum Inhibitory Concentration (MIC) and Minimum Fungicidal Concentrations (MFC) of all newly synthesized eugenol-tosylate congeners (ETC-1–ETC-7) against C. albicans strains were determined by broth microdilution assay in accordance with the approved guidelines described by Clinical and Laboratory Standards Institute (CLSI) guidelines M27-A[38]. The test compounds were prepared in 1% DMSO to a stock concentration of 8192 µg/ml. Two-fold dilutions of test compounds (100 µL) were prepared in 96-well flat-bottom microtiter plates, inoculated with 100 µl of inoculum (1 × 10^6 cells/mL) and incubated at 37 °C for 24 hours. In every set of experiment, positive control (fluconazole), negative vehicle control (1% DMSO) and culture control (media and cells only) were included. MIC’s were determined visibly as the lowest concentration of the test compounds that inhibited growth of test organism. To determine MFC, each well without visible growth was sub-cultured onto agar plates. Concentration in the first well with no growth on plate was taken as MFC. […] The experiment was performed in triplicate to validate the results.

The subject of data set [2] is Candida albicans 4179. Described as above. The note with it: strain 4179, FLC susceptible. In kind it is cell-based. The protocol:
as §1, §2

For data set [3], the system named is Candida albicans 4135. The data set is described as above. The note with it: strain 4135, FLC resistant. In kind it is cell-based. The protocol: as §1, §2
In data set [4] the test system is Candida albicans 4324. The data set is described as above. In kind it is cell-based. The note with it: strain 4324, FLC resistant. On the procedure:
as §1, §2

The test system of data set [5] is Candida albicans 4175. The description is as above. In kind it is cell-based. The following applies: Candida albicans, strain 4175, FLC susceptible. The protocol:
as §1, §2

Data set [6] relates to Candida albicans 4576. The data set is described as above. In kind it is cell-based. The note with it: strain 4576, FLC susceptible. The protocol: as §1, §2
Data set [7] relates to Candida albicans SC5314. Described as above. The following applies: SC5314, FLC susceptible. In kind it is cell-based. On the procedure:
as §1, §2

Data set [8] has as its system Candida albicans 4106. The description is as above. In kind it is cell-based. The note with it: strain 4106, FLC resistant. The protocol:
as §1, §2

For data set [9], the system named is horse red blood cells. Description: Cytotoxicity by haemolytic assay. In kind it is cell-based. The following applies: 2 × MIC, 60 minutes at 37 °C, horse RBCs. The protocol: The cytotoxicity of the test compounds was determined on horse red blood cells (NHLS, Johannesburg, South Africa) by testing the haemolytic activity of these compounds using the method described previously, with some modifications. Briefly, in a sterile 15 ml falcon tube 5 ml of horse blood was centrifuged at 2000 × rpm for 10 minutes. The supernatant was discarded, and the cell pellet was washed three times with chilled PBS solution. The final pellet was used to yield a 10% RBC suspension with chilled PBS. The 10% suspension were further diluted to 1:10 in PBS, then 100 µl of this suspension was added to different concentration of test compounds (0.5 × MIC, 1 × MIC and 2 × MIC) in 1.5 ml tubes. The tubes were then incubated for 60 minutes at 37 °C followed by centrifugation at 2000 × rpm for 10 minutes. From each tube, 200 µl of the supernatant was transferred to a flat-bottomed 96-well microtiter plate and absorbance was monitored at 450 nm spectrophotometrically with an iMark microplate reader (Bio-Rad laboratories, CA, USA). Triton X-100 (1%) and PBS were used as positive and negative controls respectively. The percentage of haemolysis was calculated by the following equation: %haemolysis=A450oftestcompoundtreatedsample−A450ofbuffertreatedsample/A450of1%TritonX−100treatedsample−A450ofbuffertreatedsample×100%

For data set [10], the system named is C. albicans SC5314, C. albicans 4175 and C. albicans 5112. Description: JC-10 mitochondrial membrane potential assay. In kind it is cell-based, Candida albicans. The following applies: 3 h, range over three strains, vs untreated control. The protocol: To study the effect of test compounds on apoptotic markers protoplasts were prepared as described previously, with modifications. Briefly, mid-exponential phase cells were harvested and exposed to various concentrations of test compounds (0.5 × MIC, 1 × MIC and 2×MIC) for 3 h. The cells were then washed twice with protoplast buffer- I (1 M sorbitol, 50 mM tris base, 10 mM MgCl2 and 30 mM DTT) and incubated in the same buffer for 15 minutes at 25 °C, followed by centrifugation at 1500 rpm for 5 minutes. Supernatant was removed and cells were incubated with buffer- II (1 M sorbitol, 50 mM tris base, 10 mM MgCl2 and 1 mM DTT) supplemented with lyticase enzyme (≥1 µg/mL) used to digest the cell wall for 1 h at 25 °C. Buffer- II were removed by centrifugation and then cells were incubated with buffer- III (1 M sorbitol, 50 mM tris base and 10 mM MgCl2) for 20 minutes at room temperature. After the incubation cells were again centrifuged at 1500 rpm for 5 minutes and supernatant was discarded. Protoplasts then finally washed once with PBS and re-suspended in the same for further use. In each washing steps the volume of these protoplast buffers were 5 times to cell volume with pH 7.4.
For the detection of mitochondrial membrane potential changes in cells exposed with different concentrations of active tosylate congeners, the JC-10 mitochondrial membrane potential assay kit–microplate (abcam, Cambridge, UK) was used according to the manufacturer’s instructions. Protoplasts were prepared as described above at a concentration of 1 × 10^6 cells/ml. 90 µl of this suspension was added to each well in 96-well microplate (with black wall and clear bottom) followed by addition of 50 µl/well JC-10 dye-loading solution. […] Fluorescence intensity were monitored at Ex/Em = 490/525 nm and 540/590 nm with a BioTek Synergy HT microplate reader (BioTek Instruments, WA, USA) for ratio analysis. The ratio between aggregate (Em = 525 nm) and monomeric forms (Em = 590 nm) of JC-10, were measured to find the change in mitochondrial membrane potential. […]

In brackets after ≈: the same amount, converted by molar mass.

Consider `C=CCc1ccc(OS(=O)(=O)c2ccc(C(=O)O)cc2)c(OC)c1` [ETC-7, 4-{[2-methoxy-4-(prop-2-en-1-yl)phenoxy]sulfonyl}benzoic acid], for which the minimum fungicidal concentration (MFC) in data set [1] came to 2 µg/mL (≈ 5.74 µM); in data set [2], 4 µg/mL (≈ 11.5 µM); in [3] it was 8 µg/mL (≈ 23 µM); in data set [4], 8 µg/mL (≈ 23 µM); in data set [5] it was 2 µg/mL (≈ 5.74 µM); in [6], 4 µg/mL (≈ 11.5 µM). For the same compound, the MFC in data set [7] stood at 2 µg/mL (≈ 5.74 µM); in [8], 4 µg/mL (≈ 11.5 µM). Also, the MIC in [1] (37 °C, 24 h) is 1 µg/mL (≈ 2.87 µM); in [2] (37 °C, 24 h), 2 µg/mL (≈ 5.74 µM); in data set [3] (37 °C, 24 h) it was 4 µg/mL (≈ 11.5 µM); in data set [4] (37 °C, 24 h), 4 µg/mL (≈ 11.5 µM); in data set [5] (37 °C, 24 h, read-out: MIC), 1 µg/mL (≈ 2.87 µM); in data set [6] (37 °C, 24 h), 2 µg/mL (≈ 5.74 µM). Further, the minimum inhibitory concentration (MIC) in [7] (37 °C, 24 h) turned out to be 1 µg/mL (≈ 2.87 µM); in data set [8] (37 °C, 24 h), 2 µg/mL (≈ 5.74 µM). In [9], this compound came in with a haemolytic activity of 8.91%. For the same compound, the figures for the “decrease in mitochondrial membrane potential” value in data set [10] (0.5 × MIC), in [10] (1 × MIC) and in [10] (2 × MIC) were 1.04–1.58 folds, 1.56–2.62 folds and 3.55–4.46 folds, respectively.
